Results published in patent publication US8361968B2 (Takeda Pharmaceutical Company Limited, priority 2002, dated 2013).
Numbered stars: 1 amine (or outer) side, 2 acyl side, 3 side chain; on linkers, the order of the positions; unused ones are H or OH. Square brackets hold non-standard residues; d marks the D form. Peptide text beside a SMILES is read from it. * marks the point of attachment. X11 = O=C(CNC(=S)[C@H](Cc1ccccc1)N[*:1])[*:2]; X1 = O=C([C@H](Cc1ccc2ccccc2n1)N[*:1])[*:2]; X7 = CNC(=N)NCCCC[C@H](N[*:1])C(=O)[*:2]; Phe(4-F) = N[C@@H](Cc1ccc(F)cc1)C(=O)O; X8 = CNC(=N)NCC[C@H](N[*:1])C(=O)[*:2]; Cyclohexanecarbonyl = O=C(C1CCCCC1)*; Arg(Me) = CNC(=N)NCCC[C@H](N)C(=O)O; 2Pal = N[C@@H](Cc1ccccn1)C(=O)O; 4Pal = N[C@@H](Cc1ccncc1)C(=O)O; Orn = NCCC[C@H](N)C(=O)O; azaGly = NNC(=O)O

Columns and labels:
[1] = system: hOT7T175-expressed CHO cells; type: cell-based
Experimental: Assay for Cell Growth Inhibition Activity in hOT7T175-Expressed Cho Cells hOT7T175-Expressed CHO cells (hereinafter hOT7T175) were cultured in DMEM supplemented with 10% dialyzed FBS (hereinafter 10% dFBS/DMEM), which was used for the following assay. The hOT7T175 was suspended in 10% dFBS/DMEM at 10,000 cells/ml. The cells were plated on a 96 well plate at 100 μL each/well (1,000 cells/well), followed by culturing overnight at 37° C. in a 5% CO2 incubator. On the following day, the medium was removed and 90 μL of 10% dFBS/DMEM supplemented with 0.5% BSA (hereinafter, 0.5% BSA/10% dFBS/DMEM) was added. […] After 10 μL of Cell Counting Kit-8 solution (Dojin Chemical Laboratory) was added to each well, incubation was performed at 37° C. in a 5% CO2 incubator for 4 hours and absorbance was measured at 450 nm.

[2] = in vitro; details: female, Balb/c, mouse, serum
Experimental: Blood was drawn from Balb/c mice (female) of 8 weeks old, settled at 37° C. for 30 minutes and centrifuged at 13000 rpm for 10 minutes to give the serum as the supernatant. The serum thus obtained was frozen-stored at −80° C.
The stability test was performed by addition of 5 nmol of Compound (5 μL of aqueous solution) to 45 μL of serum and then settlement of the mixture at 37° C. The settlement was made at 3 points of time, including 2, 10 and 30 minutes. The sample after the settlement was boiled for 3 minutes and cooled on an ice bath. After 200 μL of acetonitrile/water (3/1) was added to the sample, the mixture was ultrasonicated for 5 minutes and then centrifuged at 5000 rpm for 1 minute. After 150 μL of the supernatant was diluted with 250 μL of distilled water, insoluble matters were removed by filtration through a filter having a pore size of 0.45 μm and 200 μL of the filtrate was applied on HPLC (220 nm) to determine the peak area of Compound. A ratio of the peak area to the area when Compound was treated for 0 minute under the same conditions was calculated as a mean value in 4 respective runs to determine the residual ratio. Next, by taking the calculated residual ratio on the ordinate and the time on the abscissa, a graph was prepared and approximated by an exponential function.
The preparative HPLC used was the LC-VP series manufactured by Shimadzu Corporation and Wakosil-II 5C18 HG (4.6 mm×100 mm) manufactured by Wako Pure Chemical Industries, Ltd. was used as the column. Eluant A (0.1% TFA-containing water) and eluant B (0.1% TFA-containing acetonitrile) were used as eluants. Analysis was performed by linear density gradient elution (25 minutes) at a flow rate of 1.0 ml/min. using eluants A/B: 100/0-0/50.

[3] = target: T1, hOT7T175 (Homo sapiens, UniProt Q969F8, L364H); assay: hOT7T175 receptor binding activity: binding inhibition of Cy-5-labeled metastin (40-54) on hOT7T175-expressed CHO cells; design: expressed in transfected cells; host or cells: CHO cells
T1 sequence (Q969F8 whole entry L364H): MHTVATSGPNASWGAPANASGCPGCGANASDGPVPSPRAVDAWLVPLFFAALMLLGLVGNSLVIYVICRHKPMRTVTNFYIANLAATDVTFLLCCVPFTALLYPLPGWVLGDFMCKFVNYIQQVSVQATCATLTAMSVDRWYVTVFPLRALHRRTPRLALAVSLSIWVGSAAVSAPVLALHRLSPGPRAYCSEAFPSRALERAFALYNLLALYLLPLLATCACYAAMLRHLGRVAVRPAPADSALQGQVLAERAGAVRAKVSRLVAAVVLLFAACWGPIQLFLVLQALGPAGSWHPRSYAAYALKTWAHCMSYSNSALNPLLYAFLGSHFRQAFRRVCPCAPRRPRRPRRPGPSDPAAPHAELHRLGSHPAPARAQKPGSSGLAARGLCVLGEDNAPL

[4] = target: T1, hOT7T175; assay: Intracellular Ca ion level-increasing activity using FLIPR in hOT7T175/CHO; type: cell-based; design: expressed in transfected cells; host or cells: CHO/dhfr- cells, obtained from ATCC; details: relative, Metastin (1-54) = 1

Row | SMILES | IC50 [1] [nM] | half-life at 100 µM [2] [min] | IC50 [3] [nM] | Specific Activity (intracellular Ca ion level-increasing activity) [4]
1 | CC[C@H](C)[C@H](NC(=O)[C@H](CCC(N)=O)NC(=O)[C@H](CCCNC(=N)N)NC(=O)[C@H](CO)NC(=O)[C@H](Cc1c[nH]cn1)NC(=O)[C@@H]1CCCN1C(=O)[C@H](C)NC(=O)[C@H](CO)NC(=O)[C@H](CC(C)C)NC(=O)CNC(=O)[C@@H]1CCCN1C(=O)[C@H](CCC(N)=O)NC(=O)[C@H](CCC(N)=O)NC(=O)[C@H](CCCNC(=N)N)NC(=O)[C@H](CO)NC(=O)CNC(=O)[C@H](CO)NC(=O)[C@H](CO)NC(=O)[C@H](CCC(=O)O)NC(=O)[C@@H]1CCCN1C(=O)[C@@H]1CCCN1C(=O)[C@@H]1CCCN1C(=O)[C@H](CO)NC(=O)[C@H](CC(C)C)NC(=O)[C@H](CO)NC(=O)[C@@H](NC(=O)CN)[C@@H](C)O)C(=O)N1CCC[C@H]1C(=O)N[C@@H](C)C(=O)N1CCC[C@H]1C(=O)N[C@@H](CCC(N)=O)C(=O)NCC(=O)N[C@@H](C)C(=O)N[C@H](C(=O)N[C@@H](CC(C)C)C(=O)N[C@H](C(=O)N[C@@H](CCC(N)=O)C(=O)N[C@@H](CCCNC(=N)N)C(=O)N[C@@H](CCC(=O)O)C(=O)N[C@@H](CCCCN)C(=O)N[C@@H](CC(=O)O)C(=O)N[C@@H](CC(C)C)C(=O)N1CCC[C@H]1C(=O)N[C@@H](CC(N)=O)C(=O)N[C@@H](Cc1ccc(O)cc1)C(=O)N[C@@H](CC(N)=O)C(=O)N[C@@H](Cc1c[nH]c2ccccc12)C(=O)N[C@@H](CC(N)=O)C(=O)N[C@@H](CO)C(=O)N[C@@H](Cc1ccccc1)C(=O)NCC(=O)N[C@@H](CC(C)C)C(=O)N[C@@H](CCCNC(=N)N)C(=O)N[C@@H](Cc1ccccc1)C(N)=O)C(C)C)C(C)C [1-54] | 212 |  |  | 
2 | CC[C@H](C)[C@H](NC(=O)[C@H](CCC(N)=O)NC(=O)[C@H](CCCNC(=N)N)NC(=O)[C@H](CO)NC(=O)[C@H](Cc1c[nH]cn1)NC(=O)[C@@H]1CCCN1C(=O)[C@H](C)NC(=O)[C@H](CO)NC(=O)[C@H](CC(C)C)NC(=O)CNC(=O)[C@@H]1CCCN1C(=O)[C@H](CCC(N)=O)NC(=O)[C@H](CCC(N)=O)NC(=O)[C@H](CCCNC(=N)N)NC(=O)[C@H](CO)NC(=O)CNC(=O)[C@H](CO)NC(=O)[C@H](CO)NC(=O)[C@H](CCC(=O)O)NC(=O)[C@@H]1CCCN1C(=O)[C@@H]1CCCN1C(=O)[C@@H]1CCCN1C(=O)[C@H](CO)NC(=O)[C@H](CC(C)C)NC(=O)[C@H](CO)NC(=O)[C@@H](NC(=O)CN)[C@@H](C)O)C(=O)N1CCC[C@H]1C(=O)N[C@@H](C)C(=O)N1CCC[C@H]1C(=O)N[C@@H](CCC(N)=O)C(=O)NCC(=O)N[C@@H](C)C(=O)N[C@H](C(=O)N[C@@H](CC(C)C)C(=O)N[C@H](C(=O)N[C@@H](CCC(N)=O)C(=O)N[C@@H](CCCNC(=N)N)C(=O)N[C@@H](CCC(=O)O)C(=O)N[C@@H](CCCCN)C(=O)N[C@@H](CC(=O)O)C(=O)N[C@@H](CC(C)C)C(=O)N1CCC[C@H]1C(=O)N[C@@H](CC(N)=O)C(=O)N[C@@H](Cc1ccc(O)cc1)C(=O)N[C@@H](CC(N)=O)C(=O)N[C@@H](Cc1c[nH]c2ccccc12)C(=O)N[C@@H](CC(N)=O)C(=O)N[C@@H](CO)C(=O)N[C@@H](Cc1ccccc1)C(=O)NCC(=O)N[C@@H](CC(C)C)C(=O)N[C@@H](CCCNC(=N)N)C(=O)N[C@@H](Cc1ccccc1)C(N)=O)C(C)C)C(C)C [Compound No. 1, Metastin, reference compound] |  | 22.5 |  | 
3 | CNC(N)=NCCC[C@H](NC(=O)[C@H](CC(C)C)NC(=O)CNC(=O)[C@H](Cc1ccccc1)NC(=O)[C@H](CO)NC(=O)[C@H](CC(N)=O)NC(=O)[C@H](Cc1c[nH]c2ccccc12)NC(=O)[C@H](CC(N)=O)NC(=O)[C@@H](N)Cc1ccc(O)cc1)C(=O)N[C@@H](Cc1ccccc1)C(N)=O [Compound No. 82] |  | 1.8 |  | 
4 | CC(C)C[C@H](NC(=O)CNC(=O)[C@H](Cc1ccccc1)NC(=O)[C@H](CO)NC(=O)[C@H](CC(N)=O)NC(=O)[C@H](Cc1c[nH]c2ccccc12)NC(=O)[C@H](CC(N)=O)NC(=O)[C@@H](N)Cc1ccc(O)cc1)C(=O)N[C@@H](CCCNC(=N)N)C(=O)N[C@@H](Cc1c[nH]c2ccccc12)C(N)=O [Compound No. 134] (H-YNWNSFGLRW-NH2) |  | 2.4 | 110 | 30
5 | CNC(=N)NCCC[C@H](NC(=O)[C@H](CC(C)C)NC(=O)NNC(=O)[C@H](Cc1ccccc1)NC(=O)[C@H](CO)NC(=O)[C@H](CC(N)=O)NC(=O)C1CCCCC1)C(=O)N[C@@H](Cc1ccccc1)C(N)=O [Compound No. 278, Cyclohexanecarbonyl-Asn-Ser-Phe-AzaGly-Leu-Arg(Me)-Phe-NH2] (Cyclohexanecarbonyl-NSF[azaGly]L[Arg(Me)]F-NH2) |  |  | 110 | 2
6 | CNC(=N)NCCC[C@H](NC(=O)[C@H](CC(C)C)NC(=O)CNC(=O)[C@H](Cc1ccccn1)NC(=O)[C@H](CO)NC(=O)[C@H](CC(N)=O)NC(=O)[C@H](Cc1c[nH]c2ccccc12)NC(=O)[C@H](CC(N)=O)NC(=O)[C@H](N)Cc1ccc(O)cc1)C(=O)N[C@@H](Cc1ccccc1)C(N)=O [Compound No. 281, D-Tyr-Asn-Trp-Asn-Ser-Pya(2)-Gly-Leu-Arg(Me)-Phe-NH2] (H-[dY]NWNS[2Pal]GL[Arg(Me)]F-NH2) |  |  | 230 | ½
7 | CNC(N)=NCCC[C@H](NC(=O)[C@H](CC(C)C)NC(=O)NNC(=O)[C@H](Cc1ccccc1)NC(=O)[C@H](CO)NC(=O)[C@H](CC(N)=O)NC(=O)[C@H](Cc1ccncc1)NC(=O)[C@H](CC(N)=O)NC(=O)[C@H](N)Cc1ccc(O)cc1)C(=O)N[C@@H](Cc1ccccc1)C(N)=O [Compound No. 286, D-Tyr-Asn-Pya(4)-Asn-Ser-Phe-AzaGly-Leu-Arg(Me)-Phe-NH2] (H-[dY]N[4Pal]NSF[azaGly]L[Arg(Me)]F-NH2) |  | 57.5 | 17 | 
8 | CNC(N)=NCCC[C@H](NC(=O)[C@H](CC(C)C)NC(=O)CNC(=S)[C@H](Cc1ccccc1)NC(=O)[C@H](CO)NC(=O)[C@H](CC(N)=O)NC(=O)[C@H](Cc1c[nH]c2ccccc12)NC(=O)[C@H](CC(N)=O)NC(=O)[C@H](N)Cc1ccc(O)cc1)C(=O)N[C@@H](Cc1ccccc1)C(N)=O [Compound No. 296, D-Tyr-Asn-Trp-Asn-Ser-PheΨ(CSNH)Gly-Leu-Arg(Me)-Phe-NH2] (H-[dY]NWNS[X11]L[Arg(Me)]F-NH2) |  | 47.2 |  | 
9 | CNC(=N)NCCC[C@H](NC(=O)[C@H](CC(C)C)NC(=O)NNC(=O)[C@H](Cc1ccccc1)NC(=O)[C@H](CO)NC(=O)[C@H](CC(N)=O)NC(=O)[C@H](Cc1ccc2ccccc2n1)NC(=O)[C@H](CC(N)=O)NC(=O)[C@H](N)Cc1ccc(O)cc1)C(=O)N[C@@H](Cc1ccccc1)C(N)=O [Compound No. 301, D-Tyr-Asn-Ala(2-Qui)-Asn-Ser-Phe-AzaGly-Leu-Arg(Me)-Phe-NH2] (H-[dY]N[X1]NSF[azaGly]L[Arg(Me)]F-NH2) |  |  | 15 | 1
10 | CNC(=N)NCCC[C@H](NC(=O)[C@H](CC(C)C)NC(=O)CNC[C@H](Cc1ccccc1)NC(=O)[C@H](CO)NC(=O)[C@H](CC(N)=O)NC(=O)[C@H](Cc1c[nH]c2ccccc12)NC(=O)[C@H](CC(N)=O)NC(=O)[C@H](N)Cc1ccc(O)cc1)C(=O)N[C@@H](Cc1ccccc1)C(N)=O [Compound No. 308, D-Tyr-Asn-Trp-Asn-Ser-PheΨ(CH2NH)Gly-Leu-Arg(Me)-Phe-NH2] |  | 13.2 |  | 2
11 | CNC(=N)NCC[C@H](NC(=O)[C@H](CC(C)C)NC(=O)CNC(=O)[C@H](Cc1ccccc1)NC(=O)[C@H](CO)NC(=O)[C@H](CC(N)=O)NC(=O)[C@H](Cc1c[nH]c2ccccc12)NC(=O)[C@H](CC(N)=O)NC(=O)[C@@H](N)Cc1ccc(O)cc1)C(=O)N[C@@H](Cc1ccccc1)C(N)=O [Compound No. 311] (H-YNWNSFGL[X8]F-NH2) |  |  | 470 | 1
12 | CNC(=N)NCCCC[C@H](NC(=O)[C@H](CC(C)C)NC(=O)CNC(=O)[C@H](Cc1ccccc1)NC(=O)[C@H](CO)NC(=O)[C@H](CC(N)=O)NC(=O)[C@H](Cc1c[nH]c2ccccc12)NC(=O)[C@H](CC(N)=O)NC(=O)[C@@H](N)Cc1ccc(O)cc1)C(=O)N[C@@H](Cc1ccccc1)C(N)=O [Compound No. 312] (H-YNWNSFGL[X7]F-NH2) |  |  | 100 | 3
13 | CC(C)C[C@H](NC(=O)CNC(=O)[C@H](Cc1ccccc1)NC(=O)[C@H](CO)NC(=O)[C@H](CC(N)=O)NC(=O)[C@H](Cc1c[nH]c2ccccc12)NC(=O)[C@H](CC(N)=O)NC(=O)[C@@H](N)Cc1ccc(O)cc1)C(=O)N[C@@H](CCCN)C(=O)N[C@@H](Cc1ccccc1)C(N)=O [Compound No. 314] (H-YNWNSFGL[Orn]F-NH2) |  |  | 470 | 1
14 | CNC(=N)NCCC[C@H](NC(=O)[C@H](CC(C)C)NC(=O)NNC(=O)[C@H](Cc1ccccc1)NC(=O)[C@H](CO)NC(=O)[C@H](CC(N)=O)NC(=O)[C@@H](NC(=O)[C@@H](CC(N)=O)NC(=O)[C@H](N)Cc1ccc(O)cc1)[C@@H](C)O)C(=O)N[C@@H](Cc1ccc(F)cc1)C(N)=O [Compound No. 316, D-Tyr-D-Asn-Thr-Asn-Ser-Phe-AzaGly-Leu-Arg(Me)-Phe(4F)-NH2] (H-[dY][dN]TNSF[azaGly]L[Arg(Me)][Phe(4-F)]-NH2) |  |  | 26 | 1
